{"source": "patent US20240174693A1", "about": "“SOMATOSTATIN RECEPTOR SUBTYPE 4 (SSTR4) AGONISTS AND THEIR APPLICATIONS” (Humanwell Pharmaceutical US, priority 2022, published 2024)", "key": {"[1]": {"assay": "Log D octanol / potassium phosphate buffer", "format": "physicochemical", "conditions": "octanol / potassium phosphate buffer (pH 7.4), 25° C.", "experimental": "10 μL of 10 mM stock solutions were placed into a 96-well plate. 300 μL of octanol into the plate was added to the plate. The plate was sealed and agitated on a plate shaker for 5 minutes. The plate was centrifuged at 2000 rpm for 5 minutes. The seal was removed and 600 μL of potassium phosphate buffer (pH 7.4) was added. The plate was sealed, and the two phases were mixed on the plate shaker vigorously for 1 hour at 25° C. The plate was centrifuged at 2000 rpm for 5 minutes after mixing and the seal was removed. 10 μL of water phase samples from the water phase plate was aspirated and mixed with 10 μL of water (1:2 dilution). 180 μL of 50% Ethanol was added into the water phase sample plate (1:10 dilution) to achieve 1:20 dilution. 50 μL of water phase sample was mixed with 100 μL of 50% Ethanol (containing IS) into the water phase sample plate to achieve 1:60 dilution. 10 μL from the octanol phase (the upper phase) was transfered into a new 96-well plate and 190 μL 50% Ethanol (1:20 dilution) was added. 10 μL of 1:20 diluted octanol samples were transferred into a new 96 deep-well plate and 390 μL 50% Ethanol (1:40 dilution) was added to achieve 1:800 dilution. 50 μL of 1:800 diluted octanol samples were transferred into a new 96-well plate again and 100 μL 50% ethanol with IS was added to achieve 1:2400 dilution. Samples were ready for LC/MS analysis."}, "in vitro": {"assay": "in vitro", "conditions": "rat, hepatocytes", "description": "(§1) Vials with hepatocytes were removed from a liquid nitrogen storage unit and immediately placed in a 37±1° C. shaking water bath for 2 min±15 sec. The hepatocytes were poured into 50 mL of hepatocytes thawing medium, mixed gently, and centrifuged at 500 rpm for 3 minutes. After centrifugation, the supernatant was carefully aspirated without disturbing the pellet. 10× the volume of pre-warmed KHB buffer (Krebs-Henseleit buffer, Sigma Cat #K3753-10X1L) with 5.6 g/L HEPES was used to resuspend the cell pellet. The pellet mixture was centrifuged at 500 rpm for 3 minutes, aspirated, and the supernatant discarded without disturbing the cell pellet. The cell viability and yield were determined. The hepatocytes were counted, and the cell suspensions were diluted to the appropriate cell density. The viable cell density was 2×10^6 cells/mL. The hepatocyte solution was placed on ice until it was used.\n(§2) Two dosing solutions of prewarmed KHB (1% DMSO) were prepared. 200 μM spiking solution was prepared by adding 20 μL of substrates stock solution (10 mM) into 980 μL of DMSO. Two dosing solutions were prepared by adding 10 μL of 200 μM spiking solution into 990 μL of KHB (2 μM after dilution). The dosing solution was centrifuged at 5594 g for 15 min (Thermo Multifuge×3R). 50 μL of pre-warmed 2×dosing solution was added to the wells designated for the different time points. […] After the addition of the hepatocytes, the timer was started. The assay was placed in an incubator at 37° C. 100 μL of ACN containing IS was added to the wells designed for 0 min, the wells were mixed gently, then 50 μL of pre-warmed hepatocytes solution (2×10^6 cells/mL) was added. The wells were sealed. […] Next, the wells were sealed. After quenching, the plates were shaken on a vibrator (IKA, MTS 2/4) for 10 min at 600 rpm. The plate was sonicated for 2 min and centrifuged at 5594 g for 15 min (Thermo Multifuge×3R). 50 μL of the supernatant was transferred from each well into a 96-well sample plate containing 50 μL of ultra pure water (Millipore, ZMQS50F01) for LC/MS analysis."}, "SSTR4": {"target": "T1, SSTR4 (Homo sapiens, UniProt P31391)", "T1 construct": "host or cells: HEK293/Gα15/SSTR4", "T1 sequence (P31391 whole entry)": "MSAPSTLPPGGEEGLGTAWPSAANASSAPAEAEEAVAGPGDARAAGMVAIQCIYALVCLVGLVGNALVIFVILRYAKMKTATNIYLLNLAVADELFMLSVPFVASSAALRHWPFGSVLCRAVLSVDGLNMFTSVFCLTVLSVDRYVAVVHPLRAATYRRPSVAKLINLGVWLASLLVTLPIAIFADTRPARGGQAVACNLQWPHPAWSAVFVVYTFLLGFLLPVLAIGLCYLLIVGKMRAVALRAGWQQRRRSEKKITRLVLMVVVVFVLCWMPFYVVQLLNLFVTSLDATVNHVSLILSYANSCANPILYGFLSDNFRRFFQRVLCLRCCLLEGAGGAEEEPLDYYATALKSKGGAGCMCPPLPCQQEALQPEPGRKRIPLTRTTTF", "assay": "FLIPR assay for agonists, HEK293/Gα15/SSTR4 cells", "format": "cell-based", "conditions": "read-out: SSTR4 Agonist Activity in FLIPR Assay EC50", "description": "The study was carried out at HD Biosciences (Shanghai, China) according to the following steps.\nStep 1: Test compounds were diluted to a 400×stock solution in DMSO in a 384-well plate.\nStep 2: 1 μL of the compound solution was transferred from Step 1 to 79 μL of assay buffer, creating a 5×working solution in the 384-well plate using the Bravo method.\nStep 3: HEK293/Gα15/SSTR1-5 cells were cultured in DMEM medium (10% FBS).\nStep 4: When cells reached 80% confluence, the cells were separated using 0.25% trypsin-EDTA.\nStep 5: The cell density was measured and the cells diluted to 1×10^6/mL using DMEM (10% FBS).\nStep 6: 30 μL of cells were dispensed into each well of a Matrigel-coated 384-well plate (Corning 3764#) using a multi-channel pipette (30,000 cells per well) and cultured for 20-24 hours at 37° C. and 5% CO2.\nStep 7: 10 μL of dye was added to each well in the cell plate prepared in Step 6.\nStep 8: The dye and cells were incubated in the dark at 37° C. and 5% CO2 for 1 hour.\nStep 9: After 1 hour, the FLIPR program was loaded, the pipette tips placed cell plate and compound plate (from Step 2) into the machine, and the run button was pressed. The program added 10 μL to 40 μL to the cell plate. FLIPR was used to read the plate at room temperature according to the specified settings and the data was saved."}, "SD rats [2]": {"test_system": "SD rats", "assay": "SD rat carrageenan acute inflammation model", "format": "in vivo", "conditions": "for Changes in Foot Swelling Rate (Mean ± SEM) / Foot Swelling Degrees (Mean ± SEM): SD rat carrageenan", "experimental": "Using an electronic caliper for accuracy, the thickness of the rat's footpad was measured. Rats were then restrained, and 100 μl of 1% carrageenan was subcutaneously injected into the right hind footpad to induce inflammation, thereby establishing an acute inflammation model using carrageenan. Each compound was administered in advance according to the respective dosing time points. The swelling of the rat's foot was measured at various time points: before modeling (0 h) and after modeling (2, 4, 7 h). A comparison was made between footpad swelling before and after modeling. […] The results of the carrageenan-induced acute inflammation model experiment are depicted in FIG. 1."}, "SD rats [3]": {"test_system": "SD rats", "assay": "SD rat chronic constriction injury (CCI) model", "format": "in vivo", "conditions": "mechanical pain threshold 1, 2, 4 h post-administration, compound 8 single subcutaneous injection", "excerpt": "This model involves the use of a non-absorbable 5-0 suture to loosely ligate the sciatic nerve, causing slight compression of its outer sheath. Mechanical compression by the suture induces axonal damage, leading to abnormal discharge. Additionally, the local stimulation from the ligature induces the release of inflammatory mediators.\nFurthermore, CCI selectively damages the larger myelinated fibers of the sciatic nerve while preserving most of the unmyelinated C fibers responsible for transmitting pain.\nAfter initial screening, rats are sequentially numbered and randomly assigned to groups based on the numbering, using a random grouping method. Experimental groups are established based on trial conditions."}, "[4]": {"assay": "Chemical stability in buffer", "format": "physicochemical", "conditions": "PBS(Ph 7.4) 10 um, 37° C.; read-out: Chemical Stability T½", "experimental": "1 mM test compound spiking solution (spiking solution A) was prepared by adding 10 μL of 10 mM a test compound stock solution to 90 μL of DMSO. 396 μL of buffer were added into tubes designated for different time points. The samples were pre-warmed at 37° C. for 10 minutes. 4 μL of spiking solution A was added into the wells containing 396 μL of buffer that were designated as 0 min, 15 min, 45 min, or 60 min. The timer was started after the addition of the spiking solution. At each time point, 1200 μL of acetonitrile (ACN) containing an internal standard was added to the tubes. The samples were centrifuged at 10,000 rpm for 5 minutes and 100 μL of the supernatant was removed and analyzed by for LC-MS/MS analysis."}, "[5]": {"assay": "Metabolic stability in liver microsomes (human)", "format": "in vitro ADME", "experimental": "Buffers A-C were prepared for use in the metabolic study. The buffers were as follows: Buffer A: 1.0 L of 0.1 M monobasic Potassium Phosphate buffer containing 1.0 mM EDTA; Buffer B: 1.0 L of 0.1 M Dibasic Potassium Phosphate buffer containing 1.0 mM EDTA; and Buffer C: 0.1 M Potassium Phosphate buffer, 1.0 mM EDTA, pH 7.4 by titrating 700 mL of buffer B with buffer A while monitoring with the pH meter.\nKetanserin was used as the reference compound. Reference compound and test compound spiking solutions (500 μM spiking solution) were prepared by adding 10 μL of 10 mM DMSO stock solution into 190 μL ACN. 1.5 μL of 500 μM spiking solution (0.75 mg/mL) and 18.75 μL of 20 mg/mL liver microsomes were added into 479.75 μL of Buffer C on ice.\nA 6 mM NADPH stock solution was prepared by dissolving an appropriate amount of NADPH into buffer C. 30 μL of 1.5 μM spiking solution containing 0.75 mg/mL microsomes solution was dispensed to the assay plates designated for different time points (0-, 5-, 15-, 30-, 45-min) on ice. […] All the other plates were pre-incubated at 37° C. for 5 minutes. 15 μL of 6 mM NADPH stock solution was added to the plates to start the reaction and time. At 5-min, 15-min, 30-min, and 45-min, 135 μL of ACN containing internal standard were added to the wells of corresponding plates, respectively, to stop the reaction. […]"}, "hERG potassium channel": {"target": "hERG potassium channel (Homo sapiens, UniProt Q12809)", "sequence (Q12809 whole entry)": "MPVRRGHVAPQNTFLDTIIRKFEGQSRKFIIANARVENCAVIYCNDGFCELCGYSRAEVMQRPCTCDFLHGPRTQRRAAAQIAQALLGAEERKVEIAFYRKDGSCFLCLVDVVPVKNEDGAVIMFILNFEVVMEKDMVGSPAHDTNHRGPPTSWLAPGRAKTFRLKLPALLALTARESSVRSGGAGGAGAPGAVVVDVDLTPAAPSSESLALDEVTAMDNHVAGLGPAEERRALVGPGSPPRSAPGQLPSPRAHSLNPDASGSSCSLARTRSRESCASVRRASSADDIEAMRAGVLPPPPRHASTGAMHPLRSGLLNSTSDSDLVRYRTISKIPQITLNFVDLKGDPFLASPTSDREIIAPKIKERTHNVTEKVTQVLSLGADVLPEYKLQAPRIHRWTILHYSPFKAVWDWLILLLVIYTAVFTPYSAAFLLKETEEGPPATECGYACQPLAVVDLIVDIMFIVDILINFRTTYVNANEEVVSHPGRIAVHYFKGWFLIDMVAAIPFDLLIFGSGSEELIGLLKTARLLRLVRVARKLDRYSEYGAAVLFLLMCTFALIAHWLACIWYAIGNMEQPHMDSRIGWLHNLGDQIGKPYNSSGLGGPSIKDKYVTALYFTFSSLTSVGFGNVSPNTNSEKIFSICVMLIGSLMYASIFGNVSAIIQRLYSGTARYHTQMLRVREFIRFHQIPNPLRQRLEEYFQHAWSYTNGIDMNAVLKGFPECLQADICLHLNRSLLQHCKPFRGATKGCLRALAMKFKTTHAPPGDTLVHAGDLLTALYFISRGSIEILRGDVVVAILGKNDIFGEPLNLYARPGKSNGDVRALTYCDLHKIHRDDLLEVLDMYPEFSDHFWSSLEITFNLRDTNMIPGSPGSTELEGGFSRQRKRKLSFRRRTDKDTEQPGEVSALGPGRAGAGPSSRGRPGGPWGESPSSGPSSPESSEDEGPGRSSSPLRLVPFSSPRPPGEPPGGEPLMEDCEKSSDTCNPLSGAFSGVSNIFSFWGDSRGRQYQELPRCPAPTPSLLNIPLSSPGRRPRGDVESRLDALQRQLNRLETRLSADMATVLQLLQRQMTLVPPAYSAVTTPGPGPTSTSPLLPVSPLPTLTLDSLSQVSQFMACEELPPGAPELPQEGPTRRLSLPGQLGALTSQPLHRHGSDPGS", "assay": "in vitro", "conditions": "hERG Current Inhibition Rate (%) Mean"}, "Hepatocyte stability": {"assay": "Hepatocyte stability", "conditions": "rat, hepatocytes", "description": "as §1, §2"}}, "data": [{"compound": "CC(C)(NC(=O)[C@H]1[C@@H]2CNC[C@H]1C2)c1ncc2c(Cl)cccn12", "note": "[Compound 7, (1R,5S,6r)-N-(2-(8-chloroimidazo[1,5-a]pyridin-3-yl)propan-2-yl)-3-azabicyclo[3.1.1]heptane-6-carboxamide]", "values": [{"measurement": "logD", "setting": "[1]", "value": -0.07}, {"measurement": "CLint scaled at 1 μM", "setting": "in vitro", "value": 5.4, "unit": "mL/min/kg"}, {"measurement": "half-life at 1 μM", "setting": "in vitro", "value": 10, "unit": "h"}]}, {"compound": "CC(C)(NC(=O)[C@H]1[C@@H]2CNC[C@H]1C2)c1ncc2c(Br)cccn12", "note": "[Compound 8, (1R,5S,6r)-N-(2-(8-bromoimidazo[1,5-a]pyridin-3-yl)propan-2-yl)-3-azabicyclo[3.1.1]heptane-6-carboxamide]", "values": [{"measurement": "EC50", "setting": "SSTR4", "value": 3.33, "unit": "nM"}, {"measurement": "Changes in Foot Swelling Rate (Mean ± SEM)", "setting": "SD rats [2]; 0 h (before modeling)", "value": 0, "unit": "%"}, {"measurement": "Foot Swelling Degrees (Mean ± SEM)", "setting": "SD rats [2]; 0 h (before modeling)", "value": "4.02 ± 0.09", "unit": "mm"}, {"measurement": "Changes in Foot Swelling Rate (Mean ± SEM)", "setting": "SD rats [2]; 2 h after modeling", "value": "36.28 ± 5.75", "unit": "%"}, {"measurement": "Foot Swelling Degrees (Mean ± SEM)", "setting": "SD rats [2]; 2 h after modeling", "value": "5.51 ± 0.13", "unit": "mm"}, {"measurement": "Changes in Foot Swelling Rate (Mean ± SEM)", "setting": "SD rats [2]; 4 h after modeling", "value": "42.25 ± 2.63", "unit": "%"}, {"measurement": "Foot Swelling Degrees (Mean ± SEM)", "setting": "SD rats [2]; 4 h after modeling", "value": "5.78 ± 0.05", "unit": "mm"}, {"measurement": "Changes in Foot Swelling Rate (Mean ± SEM)", "setting": "SD rats [2]; 7 h after modeling", "value": "34.30 ± 4.17", "unit": "%"}, {"measurement": "Foot Swelling Degrees (Mean ± SEM)", "setting": "SD rats [2]; 7 h after modeling", "value": "5.44 ± 0.11", "unit": "mm"}, {"measurement": "Anti-inflammatory effect in carrageenan model", "setting": "SD rats [2]; single subcutaneous injection of 30 mg/kg, SD rats", "value": "demonstrated anti-inflammatory tendencies"}, {"measurement": "Effect on neuropathic pain in CCI model", "setting": "SD rats [3]", "value": "significantly affected the SD rat CCI model"}, {"measurement": "half-life at 10 μM", "setting": "[4]", "value": 81.3, "unit": "h"}, {"measurement": "CLint scaled at 1 μM", "setting": "[5]; pH 7.4", "value": 29.5, "unit": "mL/min/kg"}, {"measurement": "half-life at 1 μM", "setting": "[5]; pH 7.4, read-out: Metabolic stability T½", "value": 1.4, "unit": "h"}, {"measurement": "logD", "setting": "[1]", "value": -0.15}, {"measurement": "CLint scaled at 1 μM", "setting": "in vitro", "value": 6.01, "unit": "mL/min/kg"}, {"measurement": "half-life at 1 μM", "setting": "in vitro", "value": 9, "unit": "h"}, {"measurement": "inhibition at 0.3 µM", "setting": "hERG potassium channel", "value": -3.49, "unit": "%"}, {"measurement": "inhibition at 1 µM", "setting": "hERG potassium channel", "value": -3.67, "unit": "%"}, {"measurement": "inhibition at 3 µM", "setting": "hERG potassium channel", "value": -2.44, "unit": "%"}, {"measurement": "inhibition at 10 µM", "setting": "hERG potassium channel", "value": -1.66, "unit": "%"}, {"measurement": "inhibition at 30 µM", "setting": "hERG potassium channel", "value": -0.15, "unit": "%"}]}, {"compound": "CC(C)(NC(=O)[C@H]1[C@@H]2CNC[C@H]1C2)c1nc(C2CC2)c2ccccn12", "note": "[Compound 9, (1R,5S,6r)-N-(2-(1-cyclopropylimidazo[1,5-a]pyridin-3-yl)propan-2-yl)-3-azabicyclo[3.1.1]heptane-6-carboxamide]", "values": [{"measurement": "logD", "setting": "[1]", "value": -0.11}, {"measurement": "CLint scaled at 1 μM", "setting": "Hepatocyte stability", "value": 3.17, "unit": "mL/min/kg"}, {"measurement": "half-life at 1 μM", "setting": "Hepatocyte stability", "value": 17.1, "unit": "h"}]}]}
